Experiments:
[1] = tested on: carrageenan-induced paw edema; test: carrageenan-induced paw edema technique (anti-inflammatory); format: in vivo; conditions: for Observed (1/property): 1/(% inhibition of edema thickness at 3 h effect); as to Observed (1/property): test concentration or dose not given here; as to Potency (% Inhibition relative to indomethacin at 3 h effect): test concentration or dose not given here
From the text: Anti-inflammatory properties of the ibuprofen-amino acid conjugate (5a-j) and ibuprofen-amino acid-4-aminophenol conjugates 7a-j were studied by the standard carrageenan-induced paw edema technique (Naumov, R. N. et al., Bioorg. Med. Chem. Lett. 2015, 25, 2314-2320; Tiwari, A. D. et al., Org. Biomol. Chem. 2014, 12, 7238-7249).

[2] = tested on: acetic acid-induced abdominal writhing; test: acetic acid-induced abdominal writhing technique (peripheral analgesic); format: in vivo; conditions: for Potency: Relative to indomethacin; for % Inhibition/protection / Writing reflex ± SEM: in vivo; as to % Inhibition/protection: test concentration or dose not given here; as to Writing reflex ± SEM: test concentration or dose not given here
[3] = tested on: hot plate; test: hot plate technique (central analgesic); format: in vivo; conditions: for Potency: Relative to indomethacin at 120 min.
[4] = tested on: animal gastric mucosa; test: ulcerogenic liability; format: in vivo; conditions: same dose as anti-inflammatory testing
[5] = % inhibition of edema thickness at 3 h effect, Table 7
[6] = anti-inflammatory property (% inhibition of edema at 3 h), Table 8

Row | Structure (SMILES) | % inhibition of edema ([1]; 1 h) | Mean edema thickness ([1]; 1 h) | % inhibition of edema ([1]; 2 h) | Mean edema thickness ([1]; 2 h) | % inhibition of edema ([1]; 3 h) | Mean edema thickness ([1]; 3 h) | % inhibition of edema ([1]; 4 h) | Mean edema thickness ([1]; 4 h) | % inhibition of edema ([1]; 24 h) | Mean edema thickness ([1]; 24 h) | Potency [2] | % Inhibition/protection [2] | Writing reflex ± SEM [2] | % protection ([3]; After 30 min.) | Latency period ± SEM ([3]; After 30 min.) | % protection ([3]; After 60 min.) | Latency period ± SEM ([3]; After 60 min.) | % protection ([3]; After 90 min.) | Latency period ± SEM ([3]; After 90 min.) | % protection ([3]; After 120 min.) | further results
1 | CC(C)Cc1ccc(C(C)C(=O)NCCCC(=O)O)cc1 (centres unmarked) [Compound 5d, 4-(2-(4-Isobutylphenyl)propanamido)butanoic acid] | 22% | 0.96 ± 0.06 mm | 28% | 1.09 ± 0.07 mm | 60% | 0.52 ± 0.04 mm | 13% | 1.09 ± 0.05 mm | 58% | 0.08 ± 0.02 mm | 7 | 3.8% | 93.6 ± 2.6 | (34.7) % | 3.26 ± 0.12 s | (19.3) % | 2.66 ± 0.04 s | (13.2) % | 2.49 ± 0.03 s | (8.2) % | Observed (1/property) ([1]; Table 7): 0.01667; Observed property [1, 5]: 60%; Observed property [1, 6]: 60%; Potency (% Inhibition relative to indomethacin at 3 h effect) [1]: 75%; Latency period ± SEM ([3]; After 120 min.): 2.37 ± 0.01 s; Potency [3]: 14; melting point: 78.3 °C
2 | CC(C)Cc1ccc(C(C)C(=O)N[C@@H](C)C(=O)Nc2ccc(O)cc2)cc1 (stereo partly drawn) [Compound 7b, (2S)-N-(4-Hydroxyphenyl)-2-(2-(4-isobutylphenyl)propanamido)propanamide] | 21% | 0.97 ± 0.05 mm | 25% | 1.13 ± 0.06 mm | 62% | 0.50 ± 0.02 mm | 44% | 0.70 ± 0.03 mm | 5% | 0.18 ± 0.02 mm | 132 | 72.6% | 26.7 ± 1.1 | (74.0) % | 4.21 ± 0.14 s | (78.5) % | 3.98 ± 0.09 s | (75.0) % | 3.85 ± 0.05 s | (60.7) % | Observed (1/property) ([1]; Table 7): 0.01613; Observed property [1, 5]: 62%; Observed property [1, 6]: 62%; Potency (% Inhibition relative to indomethacin at 3 h effect) [1]: 78%; Latency period ± SEM ([3]; After 120 min.): 3.52 ± 0.06 s; Potency [3]: 107; melting point: 193.7 °C
3 | CC(C)Cc1ccc(C(C)C(=O)NCCC(=O)Nc2ccc(O)cc2)cc1 (centres unmarked) [Compound 7c, N-(4-Hydroxyphenyl)-3-(2-(4-isobutylphenyl)propanamido)propanamide] | 35% | 0.80 ± 0.03 mm | 58% | 0.63 ± 0.03 mm | 67% | 0.43 ± 0.02 mm | 70% | 0.38 ± 0.01 mm | 0% | 0.19 ± 0.02 mm | 115 | 63.0% | 36.0 ± 1.3 | (58.3) % | 3.83 ± 0.03 s | (53.4) % | 3.42 ± 0.12 s | (52.7) % | 3.36 ± 0.15 s | (52.1) % | Observed (1/property) ([1]; Table 7): 0.01493; Observed property [1, 5]: 67%; Observed property [1, 6]: 67%; Potency (% Inhibition relative to indomethacin at 3 h effect) [1]: 84%; Latency period ± SEM ([3]; After 120 min.): 3.33 ± 0.11 s; Potency [3]: 92; melting point: 155.5 °C
4 | CC(C)Cc1ccc(C(C)C(=O)NCCCC(=O)Nc2ccc(O)cc2)cc1 (centres unmarked) [Compound 7d, N-(4-Hydroxyphenyl)-4-(2-(4-isobutylphenyl)propanamido)butanamide] | 13% | 1.07 ± 0.06 mm | 25% | 1.14 ± 0.04 mm | 66% | 0.44 ± 0.03 mm | 13% | 1.09 ± 0.04 mm | 53% | 0.09 ± 0.01 mm | 77 | 42.1% | 56.3 ± 0.7 | (49.2) % | 3.61 ± 0.05 s | (27.8) % | 2.85 ± 0.04 s | (15.0) % | 2.53 ± 0.02 s | (12.3) % | Observed (1/property) ([1]; Table 7): 0.01515; Observed property [1, 5]: 66%; Observed property [1, 6]: 66%; Potency (% Inhibition relative to indomethacin at 3 h effect) [1]: 83%; Latency period ± SEM ([3]; After 120 min.): 2.46 ± 0.09 s; Potency [3]: 22; melting point: 140.6 °C
5 | CC(C)Cc1ccc(C(C)C(=O)O)cc1 (centres unmarked) [Ibuprofen, reference compound] | 25% | 0.92 ± 0.02 mm | 37% | 0.95 ± 0.03 mm | 71% | 0.38 ± 0.01 mm | 49% | 0.64 ± 0.02 mm | 32% | 0.13 ± 0.01 mm | 93 | 50.8% | 47.9 ± 2.1 | (25.2) % | 3.03 ± 0.04 s | (30.5) % | 2.91 ± 0.02 s | (40.5) % | 3.09 ± 0.04 s | (50.2) % | % Incidence of ulcer divided by 10 [4]: 3.33; Average of ulcer number [4]: 0.33; Average severity of ulcer [4]: 0.67; Number of animals with ulcer [4]: 2/6; Latency period ± SEM ([3]; After 120 min.): 3.29 ± 0.03 s; Potency [3]: 89
6 | COc1ccc2c(c1)c(CC(=O)O)c(C)n2C(=O)c1ccc(Cl)cc1 [Indomethacin, reference compound] | 44% | 0.69 ± 0.05 mm | 45% | 0.83 ± 0.04 mm | 80% | 0.26 ± 0.03 mm | 66% | 0.43 ± 0.05 mm | 53% | 0.09 ± 0.02 mm | 100 | 54.9% | 43.9 ± 1.9 | (30.6) % | 3.16 ± 0.02 s | (35.4) % | 3.02 ± 0.04 s | (49.5) % | 3.29 ± 0.01 s | (56.6) % | Potency (% Inhibition relative to indomethacin at 3 h effect) [1]: 100%; % Incidence of ulcer divided by 10 [4]: 10; Average of ulcer number [4]: 2; Average severity of ulcer [4]: 1.67; Number of animals with ulcer [4]: 6/6; Ulcer index [4]: 13.67; % protection ([3]; After 0 min.): (6.4) %; Latency period ± SEM ([3]; After 0 min.): 3.15 ± 0.03 s; Latency period ± SEM ([3]; After 120 min.): 3.43 ± 0.05 s; Potency [3]: 100

Source: patent US11850220B2 (Augusta University Research Institute, Inc., priority 2020, dated 2023)
